These results are taken from PMC10175918 (Communications Biology, 2023).

What all share (experiment): TGFα-shedding assay-based GPCR screening with chimeric Gα subunit proteins
What all share (format): cell-based

Experiment [1] concerns the target T1, 348 GPCRs (Homo sapiens, UniProt O43603).
T1 construct: expressed in transfected cells; host or cells: HEK293A
T1 sequence (O43603 1-387): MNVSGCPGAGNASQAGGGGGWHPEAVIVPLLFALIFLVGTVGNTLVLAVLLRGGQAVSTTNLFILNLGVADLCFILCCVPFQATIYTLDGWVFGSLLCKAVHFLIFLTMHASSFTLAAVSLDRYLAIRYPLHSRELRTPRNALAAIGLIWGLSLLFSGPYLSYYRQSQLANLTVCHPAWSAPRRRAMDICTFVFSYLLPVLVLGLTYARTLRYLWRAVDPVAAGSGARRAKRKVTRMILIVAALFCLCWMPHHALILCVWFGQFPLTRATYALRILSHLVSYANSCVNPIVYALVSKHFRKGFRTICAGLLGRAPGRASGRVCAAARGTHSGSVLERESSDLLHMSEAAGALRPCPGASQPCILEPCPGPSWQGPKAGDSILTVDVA
Conditions: 10µM, Favipiravir 100μM.

Experiment [2] addresses T2, 348 GPCRs (Homo sapiens, UniProt Q86SM8).
T2 construct: expressed in transfected cells; host or cells: HEK293A
The settings on record: 10µM, Favipiravir 100μM.

Experiment [3] addresses T3, 348 GPCRs (Homo sapiens, UniProt P08908).
T3 construct: expressed in transfected cells; host or cells: HEK293A
T3 sequence (P08908 1-422): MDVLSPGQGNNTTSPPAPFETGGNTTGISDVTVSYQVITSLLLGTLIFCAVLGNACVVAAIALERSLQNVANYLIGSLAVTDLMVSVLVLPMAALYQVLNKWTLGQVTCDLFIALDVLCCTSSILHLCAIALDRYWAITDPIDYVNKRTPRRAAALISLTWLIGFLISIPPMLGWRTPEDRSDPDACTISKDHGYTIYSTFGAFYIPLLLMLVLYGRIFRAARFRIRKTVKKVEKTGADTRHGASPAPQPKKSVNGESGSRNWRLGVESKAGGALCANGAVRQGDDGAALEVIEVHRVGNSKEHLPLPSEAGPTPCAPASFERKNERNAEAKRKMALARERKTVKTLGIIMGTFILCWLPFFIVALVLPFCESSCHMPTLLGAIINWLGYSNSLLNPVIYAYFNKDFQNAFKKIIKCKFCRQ
The settings on record: 10µM, Favipiravir 100μM.

Experiment [4] has as its target T4, 348 GPCRs (Homo sapiens, UniProt Q9Y5N1).
T4 construct: expressed in transfected cells; host or cells: HEK293A
Conditions: 10µM, Favipiravir 100μM.

The target in experiment [5] is 348 GPCRs (Homo sapiens, UniProt O60894). Conditions: 10µM, Favipiravir 100μM.
Sequence of 348 GPCRs (Homo sapiens, UniProt O60894) (O60894 27-148): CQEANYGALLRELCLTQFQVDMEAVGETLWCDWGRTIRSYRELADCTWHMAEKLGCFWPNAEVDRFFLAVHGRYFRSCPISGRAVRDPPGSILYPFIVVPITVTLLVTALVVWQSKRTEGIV
Experiment [6] concerns the target T5, 348 GPCRs (Homo sapiens, UniProt P46091).
T5 construct: expressed in transfected cells; host or cells: HEK293A
T5 sequence (P46091 1-355): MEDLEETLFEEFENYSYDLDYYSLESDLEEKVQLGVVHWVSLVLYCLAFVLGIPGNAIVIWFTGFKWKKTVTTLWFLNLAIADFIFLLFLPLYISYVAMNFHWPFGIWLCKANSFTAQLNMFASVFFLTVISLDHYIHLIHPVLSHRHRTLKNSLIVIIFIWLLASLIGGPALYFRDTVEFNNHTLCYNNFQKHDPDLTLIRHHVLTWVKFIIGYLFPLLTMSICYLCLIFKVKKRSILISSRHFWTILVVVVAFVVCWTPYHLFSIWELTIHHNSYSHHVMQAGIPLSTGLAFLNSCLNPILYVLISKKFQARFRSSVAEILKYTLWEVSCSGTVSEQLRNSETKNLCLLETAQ

For experiment [7], the target named is T6, 348 GPCRs (Homo sapiens, UniProt P25929).
T6 construct: expressed in transfected cells; host or cells: HEK293A
T6 sequence (P25929 1-384): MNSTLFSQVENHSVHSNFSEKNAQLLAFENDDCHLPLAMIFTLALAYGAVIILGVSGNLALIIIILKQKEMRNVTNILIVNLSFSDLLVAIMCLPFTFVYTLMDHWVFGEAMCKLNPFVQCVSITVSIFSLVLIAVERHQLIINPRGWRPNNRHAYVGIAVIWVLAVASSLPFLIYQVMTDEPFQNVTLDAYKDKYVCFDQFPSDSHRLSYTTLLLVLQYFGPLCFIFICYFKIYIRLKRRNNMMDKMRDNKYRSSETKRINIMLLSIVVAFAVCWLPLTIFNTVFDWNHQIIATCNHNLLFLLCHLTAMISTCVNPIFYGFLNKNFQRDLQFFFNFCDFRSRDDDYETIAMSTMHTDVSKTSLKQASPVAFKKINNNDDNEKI
Conditions: 10µM, Favipiravir 100μM.

Experiment [8] addresses T7, 348 GPCRs (Homo sapiens, UniProt P51679).
T7 construct: expressed in transfected cells; host or cells: HEK293A
T7 sequence (P51679 1-360): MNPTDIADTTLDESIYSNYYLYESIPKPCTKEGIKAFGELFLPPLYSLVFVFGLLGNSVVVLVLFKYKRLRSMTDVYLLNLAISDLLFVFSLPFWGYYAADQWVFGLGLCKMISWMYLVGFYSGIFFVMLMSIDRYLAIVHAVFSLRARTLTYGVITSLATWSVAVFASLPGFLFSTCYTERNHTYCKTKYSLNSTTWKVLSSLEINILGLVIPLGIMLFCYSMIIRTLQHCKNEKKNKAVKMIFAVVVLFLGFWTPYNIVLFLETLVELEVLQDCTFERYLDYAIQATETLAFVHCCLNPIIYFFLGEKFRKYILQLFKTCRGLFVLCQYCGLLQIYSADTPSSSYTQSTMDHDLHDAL
The settings on record: 10µM, Favipiravir 100μM.

Experiment [9] has as its target 348 GPCRs (Homo sapiens, UniProt P32745). Conditions: 10µM, Favipiravir 100μM.
Experiment [10] addresses T8, 348 GPCRs (Homo sapiens, UniProt P34972).
T8 construct: expressed in transfected cells; host or cells: HEK293A
The settings on record: 10µM, Favipiravir 100μM.

Setting [11] is: read-out: % GPCR activation compared to TPA, GAL2 (galanin receptor 2).
Where [12] appears, read: read-out: % GPCR activation compared to TPA, MRGE (MAS-related GPR, member E).
Where [13] appears, read: read-out: % GPCR activation compared to TPA, MRGPRE (MAS-related GPR, member E).
[14] abbreviates: read-out: % GPCR activation compared to TPA, 5-HT1A (5-hydroxytryptamine receptor 1A).
Setting [15] is: read-out: % GPCR activation compared to TPA, H3 (histamine receptor H3).
Where [16] appears, read: read-out: % GPCR activation compared to TPA, RAMP1 (receptor-activity-modifying protein 1).
[17] abbreviates: read-out: % GPCR activation compared to TPA, GPCR GPR1 (G protein-coupled receptor 1).
The mark [18] stands for this setting: read-out: % GPCR activation compared to TPA, NPY1R (neuropeptide Y receptor Y1).
[19] abbreviates: read-out: % GPCR activation compared to TPA, CCR4 (C-C motif chemokine receptor 4).
[20] abbreviates: read-out: % GPCR activation compared to TPA, SSTR3 (somatostatin receptor 3).
[21] abbreviates: read-out: % GPCR activation compared to TPA, CB2 (cannabinoid receptor 2).
[22] abbreviates: GAL2 (galanin receptor 2), read-out: % GPCR activation compared to TPA.
The mark [23] stands for this setting: MRGE (MAS-related GPR, member E), read-out: % GPCR activation compared to TPA.
[24] abbreviates: MRGPRE (MAS-related GPR, member E), read-out: % GPCR activation compared to TPA.
[25] abbreviates: 5-HT1A (5-hydroxytryptamine receptor 1A), read-out: % GPCR activation compared to TPA.
The mark [26] stands for this setting: H3 (histamine receptor H3), read-out: % GPCR activation compared to TPA.
Setting [27] is: RAMP1 (receptor-activity-modifying protein 1), read-out: % GPCR activation compared to TPA.
The mark [28] stands for this setting: NPY1R (neuropeptide Y receptor Y1), read-out: % GPCR activation compared to TPA.
Where [29] appears, read: CCR4 (C-C motif chemokine receptor 4), read-out: % GPCR activation compared to TPA.
Setting [30] is: SSTR3 (somatostatin receptor 3), read-out: % GPCR activation compared to TPA.
Where [31] appears, read: CB2 (cannabinoid receptor 2), read-out: % GPCR activation compared to TPA.
The mark [32] stands for this setting: GPCR GPR1 (G protein-coupled receptor 1), read-out: % GPCR activation compared to TPA.

Read-outs that look alike come from different tables or passages of the source.

T2 sequence (Q86SM8 whole entry): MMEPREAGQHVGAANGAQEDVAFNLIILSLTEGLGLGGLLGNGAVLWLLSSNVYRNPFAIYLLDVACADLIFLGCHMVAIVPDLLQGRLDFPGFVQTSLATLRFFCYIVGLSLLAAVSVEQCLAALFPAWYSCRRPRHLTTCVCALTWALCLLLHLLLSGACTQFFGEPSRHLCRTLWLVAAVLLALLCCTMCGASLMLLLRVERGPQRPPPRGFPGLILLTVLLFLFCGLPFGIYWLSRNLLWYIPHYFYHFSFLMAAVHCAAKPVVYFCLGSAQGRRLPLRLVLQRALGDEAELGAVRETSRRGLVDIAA
T8 sequence (P34972 whole entry): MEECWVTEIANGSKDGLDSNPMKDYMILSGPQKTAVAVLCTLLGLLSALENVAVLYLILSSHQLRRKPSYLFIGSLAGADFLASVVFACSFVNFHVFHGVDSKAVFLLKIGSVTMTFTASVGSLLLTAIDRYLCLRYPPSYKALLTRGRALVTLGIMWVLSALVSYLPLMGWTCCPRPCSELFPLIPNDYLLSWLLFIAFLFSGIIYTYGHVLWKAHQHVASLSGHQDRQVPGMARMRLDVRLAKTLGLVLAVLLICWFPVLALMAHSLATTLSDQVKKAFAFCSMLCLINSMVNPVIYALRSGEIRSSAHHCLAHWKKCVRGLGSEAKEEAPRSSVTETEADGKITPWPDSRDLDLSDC
Sequence of 348 GPCRs (Homo sapiens, UniProt P32745) (P32745 whole entry): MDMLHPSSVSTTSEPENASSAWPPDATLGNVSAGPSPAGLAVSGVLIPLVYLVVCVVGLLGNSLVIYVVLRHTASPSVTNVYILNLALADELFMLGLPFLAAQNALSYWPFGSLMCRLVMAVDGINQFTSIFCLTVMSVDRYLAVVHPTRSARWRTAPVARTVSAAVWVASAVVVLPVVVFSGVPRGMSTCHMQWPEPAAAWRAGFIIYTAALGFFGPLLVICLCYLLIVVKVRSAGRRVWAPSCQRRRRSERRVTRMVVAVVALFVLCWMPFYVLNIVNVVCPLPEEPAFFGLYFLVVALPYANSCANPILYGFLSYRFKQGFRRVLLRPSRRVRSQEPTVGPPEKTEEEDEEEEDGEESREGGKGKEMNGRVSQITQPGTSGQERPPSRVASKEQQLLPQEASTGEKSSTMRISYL
T4 sequence (Q9Y5N1 whole entry): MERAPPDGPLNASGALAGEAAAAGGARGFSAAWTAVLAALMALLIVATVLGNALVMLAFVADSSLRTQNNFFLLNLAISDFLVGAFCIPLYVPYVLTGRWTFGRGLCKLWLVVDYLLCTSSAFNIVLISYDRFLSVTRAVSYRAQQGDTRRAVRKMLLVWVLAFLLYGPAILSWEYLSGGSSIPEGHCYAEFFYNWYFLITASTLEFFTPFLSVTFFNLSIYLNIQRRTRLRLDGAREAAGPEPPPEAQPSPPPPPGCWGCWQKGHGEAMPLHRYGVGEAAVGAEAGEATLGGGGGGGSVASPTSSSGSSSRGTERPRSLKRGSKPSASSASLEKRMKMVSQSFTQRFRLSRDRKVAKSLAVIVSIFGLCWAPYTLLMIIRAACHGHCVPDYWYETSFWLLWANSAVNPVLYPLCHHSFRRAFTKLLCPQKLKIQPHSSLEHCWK

In the case of `CC(C)OC(=O)[C@H](C)N[P@](=O)(OC[C@H]1O[C@@H](n2ccc(=O)[nH]c2=O)[C@](C)(F)[C@@H]1O)Oc1ccccc1` [sofosbuvir], the activation at 100 µM was 3.27% at 348 GPCRs [1] (setting [11]); -1.05% at 348 GPCRs [2] (setting [12]); 0.355% on 348 GPCRs [2] (setting [13]); -2.02% on 348 GPCRs [4] (setting [15]); -0.995% at 348 GPCRs [5] (setting [16]); -0.539% at 348 GPCRs [7] (setting [18]). The values for the activation at 100 µM on 348 GPCRs [8] (setting [19]) and on 348 GPCRs [10] (setting [21]) were -2.38% and -2.78%, respectively. The activation at 10 µM at 348 GPCRs [3] (setting [14]) was -0.274%; at 348 GPCRs [6] (setting [17]), -2.4%; on 348 GPCRs [9] (setting [20]), -1.81%.

As to `NC(=O)c1nc(F)cnc1O` [favipiravir, 6-fluoro-3-hydroxy-2-pyrazinecarboxamide], the activation at 100 µM at 348 GPCRs [1] (setting [22]) was -0.244%; at 348 GPCRs [2] (setting [23]) it was -2.09%; on 348 GPCRs [2] (setting [24]), -1.34%; at 348 GPCRs [4] (setting [26]) it was 0.315%; on 348 GPCRs [5] (setting [27]) it was -0.805%; at 348 GPCRs [6] (GPCR GPR1 (G protein-coupled receptor 1), 100μM, read-out: % GPCR activation compared to TPA) it was -1.92%. The activation at 100 µM is -1.15% on 348 GPCRs [7] (setting [28]), 0.85% at 348 GPCRs [8] (setting [29]) and 1.24% at 348 GPCRs [10] (setting [31]). For the same compound, the activation at 10 µM on 348 GPCRs [3] (setting [25]) is -0.504%; at 348 GPCRs [9] (setting [30]) it was 1.41%.

Consider `CCC(CC)COC(=O)[C@H](C)N[P@](=O)(OC[C@H]1O[C@@](C#N)(c2ccc3c(N)ncnn23)[C@H](O)[C@@H]1O)Oc1ccccc1` [remdesivir], for which the activation at 100 µM at 348 GPCRs [1] (setting [11]) is 0.971%; at 348 GPCRs [2] (setting [12]), -2.75%; on 348 GPCRs [2] (setting [13]) it was -1.08%; on 348 GPCRs [4] (setting [15]), 0.0878%; at 348 GPCRs [5] (setting [16]) it was 1.07%; at 348 GPCRs [7] (setting [18]), 0.0788%. The activation at 100 µM at 348 GPCRs [8] (setting [19]) was 1.77%; at 348 GPCRs [10] (setting [21]), -0.086%. Besides, the activation at 10 µM on 348 GPCRs [3] (setting [14]) came out at 1.91%; at 348 GPCRs [6] (setting [17]) it was 2.72%; on 348 GPCRs [9] (setting [20]), 3.89%.

`N#C[C@@]1(c2ccc3c(N)ncnn23)O[C@H](CO)[C@@H](O)[C@H]1O` [GS441524]: the activation at 100 µM was -0.925% on 348 GPCRs [1] (setting [22]); -0.92% at 348 GPCRs [2] (setting [23]); -0.879% on 348 GPCRs [2] (setting [24]); 0.59% at 348 GPCRs [4] (setting [26]); -0.968% at 348 GPCRs [5] (setting [27]); -0.88% on 348 GPCRs [7] (setting [28]). In addition, the activation at 100 µM was -0.385% on 348 GPCRs [8] (setting [29]) and -0.772% at 348 GPCRs [10] (setting [31]). Also, the activation at 10 µM on 348 GPCRs [3] (setting [25]) was -0.48%; at 348 GPCRs [6] (setting [32]) it was -3.33%; on 348 GPCRs [9] (setting [30]), 3.54%.

On to `CC(C)C(=O)OC[C@H]1O[C@@H](n2ccc(NO)nc2=O)[C@H](O)[C@@H]1O` [molnupiravir], for which the activation at 100 µM on 348 GPCRs [1] (setting [22]) was -6.16%; on 348 GPCRs [2] (setting [23]) it was -1.17%; at 348 GPCRs [2] (setting [24]) it was -1.32%; at 348 GPCRs [4] (setting [26]) it was -0.295%; on 348 GPCRs [5] (setting [27]), -0.742%; at 348 GPCRs [7] (setting [28]), -1.55%. The results for the activation at 100 µM on 348 GPCRs [8] (setting [29]) and on 348 GPCRs [10] (setting [31]) were 1.67% and -1.91%, respectively. Also, the activation at 10 µM at 348 GPCRs [3] (setting [25]) is -1.27%; at 348 GPCRs [6] (setting [32]) it was -1.07%; on 348 GPCRs [9] (setting [30]), -1.25%.
